Patent publication US20050197338A1, “Substituted pyrazole urea compounds for the treatment of inflammation” (priority 2003, published 2005)

Each compound was assayed against T1, human IKK-2 (rhIKK-2 homodimer) (Homo sapiens, UniProt O14920) (assay: IKK-2 Resin Enzyme Assay (Human IKK-2 Enzyme Assay)). Details: human IKK-2, resin enzyme assay; read-out: IC50 (μM) hIKK-2.
T1 construct: FLAG (DYKDDDDKD) (C); made in house; host or cells: insect cells (baculovirus, pFastBac)
T1 sequence (O14920 1-756): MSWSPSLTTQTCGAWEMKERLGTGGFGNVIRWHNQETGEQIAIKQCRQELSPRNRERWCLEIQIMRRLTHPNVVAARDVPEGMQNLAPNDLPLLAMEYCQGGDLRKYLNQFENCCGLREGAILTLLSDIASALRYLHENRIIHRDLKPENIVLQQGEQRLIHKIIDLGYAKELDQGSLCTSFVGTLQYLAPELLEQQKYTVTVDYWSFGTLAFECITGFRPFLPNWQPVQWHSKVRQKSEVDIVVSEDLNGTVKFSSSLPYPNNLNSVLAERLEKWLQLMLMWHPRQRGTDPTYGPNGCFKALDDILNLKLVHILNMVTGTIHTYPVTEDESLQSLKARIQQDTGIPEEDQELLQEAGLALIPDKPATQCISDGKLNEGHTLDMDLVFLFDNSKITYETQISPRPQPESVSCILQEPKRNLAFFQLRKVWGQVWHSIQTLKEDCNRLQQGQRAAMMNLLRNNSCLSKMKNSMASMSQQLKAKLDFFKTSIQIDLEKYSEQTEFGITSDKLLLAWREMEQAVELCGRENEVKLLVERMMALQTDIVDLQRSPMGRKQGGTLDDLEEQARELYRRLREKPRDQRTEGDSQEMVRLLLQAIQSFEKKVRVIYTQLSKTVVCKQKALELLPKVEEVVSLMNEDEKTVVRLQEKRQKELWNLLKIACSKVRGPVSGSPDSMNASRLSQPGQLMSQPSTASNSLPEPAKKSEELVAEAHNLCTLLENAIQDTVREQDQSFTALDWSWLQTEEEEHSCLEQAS
Assay type: biochemical
How it was run: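 C-terminally FLAG-tagged human IKK-2 homodimer, baculovirus-expressed in insect cells and anti-FLAG purified. Reaction mix: 5 μM biotinylated IκBα peptide (Ser32/Ser36 region), 1 μM ATP with [γ-33P]ATP, 2 mM MgCl2, 2 mM MnCl2, 10 mM NaF, 1 mM DTT, 25 mM HEPES pH 7.6. Incubated 30 min at 25 °C; IC50 derived.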

SMILES | IC50
NC(=O)Nc1cn(-c2ccc(-c3ccc(C(=O)OCc4ccc(F)cc4)c(F)c3)cc2)nc1C(N)=O [Example 164, 4-fluorobenzyl 4′-{3-(aminocarbonyl)-4-[(aminocarbonyl)amino]-1H-pyrazol-1-yl}-3-fluoro-1,1′-biphenyl-4-carboxylate] | 11.3 µM
NC(=O)Nc1cn(-c2ccc(Br)cc2)nc1C(N)=O [Example 19, 1-(1-(4-bromophenyl)-3-carbamoyl-1H-pyrazol-4-yl)urea] | 0.31 µM
N#Cc1ccc(-c2ccc(-n3cc(NC(N)=O)c(C(N)=O)n3)cc2)cc1 [Example 100, 4-[(aminocarbonyl)amino]-1-(4′-cyano-1,1′-biphenyl-4-yl)-1H-pyrazole-3-carboxamide] | 1.15 µM
NC(=O)Nc1cn(-c2ccc(-c3ccccc3)cc2)nc1C(N)=O [Example 101, 4-[(aminocarbonyl)amino]-1-(1,1′-biphenyl-4-yl)-1H-pyrazole-3-carboxamide] | 8.07 µM
NC(=O)Nc1cn(-c2ccc(-c3ccc(C(=O)OCc4cccc(F)c4)c(F)c3)cc2)nc1C(N)=O [Example 163, 3-fluorobenzyl 4′-{3-(aminocarbonyl)-4-[(aminocarbonyl)amino]-1H-pyrazol-1-yl}-3-fluoro-1,1′-biphenyl-4-carboxylate] | 16.6 µM
NC(=O)Nc1cn(-c2ccc(-c3cc4ccccc4[nH]3)cc2)nc1C(N)=O [Example 141, 4-[(aminocarbonyl)amino]-1-[4-(1H-indol-2-yl)phenyl]-1H-pyrazole-3-carboxamide] | 11.4 µM
CNC(=O)Nc1cn(-c2cccc(Br)c2)nc1C(N)=O [Example 15, 1-(3-bromophenyl)-4-{[(methylamino)carbonyl]amino}-1H-pyrazole-3-carboxamide] | 8.05 µM
NC(=O)Nc1cn(-c2ccc(S(=O)(=O)C3CCCCC3)cc2)nc1C(N)=O [Example 192, 1-(3-carbamoyl-1-(4-(cyclohexylsulfonyl)phenyl)-1H-pyrazol-4-yl)urea] | 0.237 µM
NC(=O)Nc1cn(-c2ccc(-c3cccc(O)c3)c(Cl)c2)nc1C(N)=O [Example 7, 4-[(aminocarbonyl)amino]-1-(2-chloro-3′-hydroxy-1,1′-biphenyl-4-yl)-1H-pyrazole-3-carboxamide] | 0.355 µM
COc1ccc(-n2cc(NC(N)=O)c(C(N)=O)n2)cc1Cl [Example 209, 4-[(Aminocarbonyl)amino]-1-(3-chloro-4-methoxyphenyl)-1H-pyrazole-3-carboxamide] | 1.04 µM
NC(=O)Nc1cn(-c2ccc(Br)c(F)c2)nc1C(N)=O [Example 225, 4-[(aminocarbonyl)amino]-1-(4-bromo-3-fluorophenyl)-1H-pyrazole-3-carboxamide] | 0.378 µM
NC(=O)Nc1cn(-c2ccc(-c3cccc(O)c3)cc2F)nc1C(N)=O [Example 247, 4-[(aminocarbonyl)amino]-1-(3-fluoro-3′-hydroxy-1,1′-biphenyl-4-yl)-1H-pyrazole-3-carboxamide] | 0.457 µM
Cc1cc(-c2cccc(O)c2)ccc1-n1cc(NC(N)=O)c(C(N)=O)n1 [Example 5, 4-[(aminocarbonyl)amino]-1-(3′-hydroxy-3-methyl-1,1′-biphenyl-4-yl)-1H-pyrazole-3-carboxamide] | 5.09 µM
NC(=O)COc1cccc(-c2ccc(-n3cc(NC(N)=O)c(C(N)=O)n3)cc2)c1 [Example 175, 4-[(aminocarbonyl)amino]-1-[3′-(2-amino-2-oxoethoxy)-1,1′-biphenyl-4-yl]-1H-pyrazole-3-carboxamide] | 0.18 µM
N#CCOc1ccc(F)cc1-c1cccc(-n2cc(NC(N)=O)c(C(N)=O)n2)c1 [Example 94, 4-[(aminocarbonyl)amino]-1-[2′-(cyanomethoxy)-5′-fluoro-1,1′-biphenyl-3-yl]-1H-pyrazole-3-carboxamide] | 0.22 µM
CNC(=O)Nc1cn(-c2ccc(Br)cc2)nc1C(N)=O [Example 16, 1-(4-bromophenyl)-4-{[(methylamino)carbonyl]amino}-1H-pyrazole-3-carboxamide] | 3.1 µM
NC(=O)Nc1cn(-c2ccc(I)cc2)nc1C(N)=O [Example 215, 4-[(aminocarbonyl)amino]-1-(4-iodophenyl)-1H-pyrazole-3-carboxamide] | 0.322 µM

SMILES | IC50
NC(=O)Nc1cn(-c2ccc(S(=O)(=O)c3ccc(F)cc3)cc2)nc1C(N)=O [Example 204, 1-(1-(4-(4-fluorophenylsulfonyl)phenyl)-3-carbamoyl-1H-pyrazol-4-yl)urea] | 0.013 µM
N#CCOc1ccc(F)cc1-c1ccc(-n2cc(NC(N)=O)c(C(N)=O)n2)cc1 [Example 172, 4-[(aminocarbonyl)amino]-1-[2′-(cyanomethoxy)-5′-fluoro-1,1′-biphenyl-4-yl]-1H-pyrazole-3-carboxamide] | 0.044 µM
N#CCCc1cccc(-c2ccc(-n3cc(NC(N)=O)c(C(N)=O)n3)cc2)c1 [Example 186, 4-[(aminocarbonyl)amino]-1-[3′-(2-cyanoethyl)-1,1′-biphenyl-4-yl]-1H-pyrazole-3-carboxamide] | 0.86 µM
NC(=O)Nc1cn(-c2ccc(-c3ccc(C(=O)O)c(F)c3)cc2)nc1C(N)=O [Example 97, 4′-{3-(aminocarbonyl)-4-[(aminocarbonyl)amino]-1H-pyrazol-1-yl}-3-fluoro-1,1′-biphenyl-4-carboxylic acid] | 0.14 µM
NC(=O)Nc1cn(-c2ccc(Br)c(C(F)(F)F)c2)nc1C(N)=O [Example 1, 4-[(aminocarbonyl)amino]-1-[4-bromo-3-(trifluoromethyl)phenyl]-1H-pyrazole-3-carboxamide] | 0.307 µM
NC(=O)Nc1cn(-c2ccc(S(=O)(=O)c3ccccc3F)cc2)nc1C(N)=O [Example 194, 1-(1-(4-(2-fluorophenylsulfonyl)phenyl)-3-carbamoyl-1H-pyrazol-4-yl)urea] | 0.15 µM
Cc1cc(I)ccc1-n1cc(NC(N)=O)c(C(N)=O)n1 [Example 4, 1-(4-iodo-2-methyl-phenyl)-4-ureido-1H-pyrazole-3-carboxylic acid amide] | 2.87 µM
NC(=O)Nc1cn(-c2ccc(-c3ccc(C(=O)OCc4ccccc4F)c(F)c3)cc2)nc1C(N)=O [Example 162, 2-fluorobenzyl 4′-{3-(aminocarbonyl)-4-[(aminocarbonyl)amino]-1H-pyrazol-1-yl}-3-fluoro-1,1′-biphenyl-4-carboxylate] | 13.7 µM
CCOc1cc(-n2cc(NC(N)=O)c(C(N)=O)n2)ccc1Br [Example 3, 4-[(aminocarbonyl)amino]-1-(4-bromo-3-ethoxyphenyl)-1H-pyrazole-3-carboxamide] | 1.35 µM
NC(=O)Nc1cn(-c2ccc(-c3cc(F)ccc3O)cc2)nc1C(N)=O [Example 99, 4-[(aminocarbonyl)amino]-1-(5′-fluoro-2′-hydroxy-1,1′-biphenyl-4-yl)-1H-pyrazole-3-carboxamide] | 0.75 µM
NC(=O)Nc1cn(-c2ccc(-c3ccc(-c4nnn[nH]4)cc3)cc2)nc1C(N)=O [Example 187, 4-[(aminocarbonyl)amino]-1-[4′-(1H-tetrazol-5-yl)-1,1′-biphenyl-4-yl]-1H-pyrazole-3-carboxamide] | 0.821 µM
CN(C)CCN(C)C(=O)c1ccc(-c2ccc(-n3cc(NC(N)=O)c(C(N)=O)n3)cc2)cc1F [Example 160, 4-[(aminocarbonyl)amino]-1-(4′-{[[2-(dimethylamino)ethyl](methyl)amino]carbonyl}-3′-fluoro-1,1′-biphenyl-4-yl)-1H-pyrazole-3-carboxamide] | 4.79 µM
NC(=O)Nc1cn(-c2ccc(Sc3ccccn3)cc2)nc1C(N)=O [Example 205, 1-(3-carbamoyl-1-(4-(pyridin-2-ylthio)phenyl)-1H-pyrazol-4-yl)urea] | 1.13 µM
CC(C)(C)OC(=O)COc1cccc(-c2ccc(-n3cc(NC(N)=O)c(C(N)=O)n3)cc2)c1 [Example 174, tert-butyl [(4′-{3-(aminocarbonyl)-4-[(aminocarbonyl)amino]-1H-pyrazol-1-yl}-1,1′-biphenyl-3-yl)oxy]acetate] | 3.67 µM
NC(=O)Nc1cn(-c2cccc(-c3cc(F)ccc3O)c2)nc1C(N)=O [Example 93, 4-[(aminocarbonyl)amino]-1-(5′-fluoro-2′-hydroxy-1,1′-biphenyl-3-yl)-1H-pyrazole-3-carboxamide] | 3.1 µM
Cc1cc(-n2cc(NC(N)=O)c(C(N)=O)n2)ccc1I [Example 8, 1-(4-iodo-3-methyl-phenyl)-4-ureido-1H-pyrazole-3-carboxylic acid amide] | 0.0676 µM
NC(=O)Nc1cn(-c2cccc(-c3ccc(F)cc3O)c2)nc1C(N)=O [Example 92, 4-[(aminocarbonyl)amino]-1-(4′-fluoro-2′-hydroxy-1,1′-biphenyl-3-yl)-1H-pyrazole-3-carboxamide] | 6.61 µM
